Reference: ChEMBL document CHEMBL3872259, “Synthesis, characterization, and in vitro SAR evaluation of N,N'-bis(arylmethyl)-C2-alkyl substituted imidazolium salts” (Bioorg Med Chem Lett, 2017)

Key:
[1] = Growth inhibition of human NCI-H322M cells measured after 48 hrs by sulforhodamine B assay; assay type: functional; conditions: for CC50: read-out: LC50 (the source's name)
[2] = Antiproliferative activity against human A549 cells assessed as reduction in cell viability measured after 72 hrs by MTT assay; assay type: functional, cell-based; conditions: A549, 72 h
[3] = Growth inhibition of human HOP62 cells measured after 48 hrs by sulforhodamine B assay; assay type: functional; conditions: HOP-62, 48 h; for CC50: read-out: LC50 (the source's name)
[4] = Antiproliferative activity against human HOP62 cells assessed as cell growth at 10 uM measured after 48 hrs by sulforhodamine B assay relative to control; assay type: functional; conditions: HOP-62, 48 h, read-out: Activity
[5] = Growth inhibition of human HOP92 cells measured after 48 hrs by sulforhodamine B assay; assay type: functional; conditions: HOP-92, 48 h; for CC50: read-out: LC50 (the source's name)
[6] = Growth inhibition of human NCI-H23 cells measured after 48 hrs by sulforhodamine B assay; assay type: functional; conditions: NCI-H23, 48 h; for CC50: read-out: LC50 (the source's name)
[7] = Antiproliferative activity against human HCC827 cells assessed as reduction in cell viability measured after 72 hrs by MTT assay; assay type: functional, cell-based; conditions: HCC827, 72 h
[8] = Antiproliferative activity against human NCI-H322M cells assessed as cell growth at 10 uM measured after 48 hrs by sulforhodamine B assay relative to control; assay type: functional; conditions: read-out: Activity
[9] = Growth inhibition of human EKVX cells measured after 48 hrs by sulforhodamine B assay; assay type: functional; conditions: for CC50: read-out: LC50 (the source's name)
[10] = Growth inhibition of human NCI-H522 cells measured after 48 hrs by sulforhodamine B assay; assay type: functional; conditions: NCI-H522, 48 h
[11] = Antiproliferative activity against human NCI-H460 cells assessed as cell growth at 10 uM measured after 48 hrs by sulforhodamine B assay relative to control; assay type: functional; conditions: NCI-H460, 48 h, read-out: Activity
[12] = Antiproliferative activity against human NCI-H23 cells assessed as cell growth at 10 uM measured after 48 hrs by sulforhodamine B assay relative to control; assay type: functional; conditions: NCI-H23, 48 h, read-out: Activity
[13] = Antiproliferative activity against human NCI-H522 cells assessed as cell growth at 10 uM measured after 48 hrs by sulforhodamine B assay relative to control; assay type: functional; conditions: NCI-H522, 48 h, read-out: Activity
[14] = Antiproliferative activity against human NCI-H460 cells assessed as reduction in cell viability measured after 72 hrs by MTT assay; assay type: functional, cell-based; conditions: NCI-H460, 72 h; for CC50: read-out: LC50 (the source's name)
[15] = Growth inhibition of human NCI-H226 cells measured after 48 hrs by sulforhodamine B assay; assay type: functional; conditions: NCI-H226, 48 h; for CC50: read-out: LC50 (the source's name)
[16] = Antiproliferative activity against human A549/ATCC cells assessed as cell growth at 10 uM measured after 48 hrs by sulforhodamine B assay relative to control; assay type: functional; conditions: A549, 48 h, read-out: Activity
[17] = Antiproliferative activity against human EKVX cells assessed as cell growth at 10 uM measured after 48 hrs by sulforhodamine B assay relative to control; assay type: functional; conditions: read-out: Activity
[18] = Antiproliferative activity against human NCI-H226 cells assessed as cell growth at 10 uM measured after 48 hrs by sulforhodamine B assay relative to control; assay type: functional; conditions: NCI-H226, 48 h, read-out: Activity
[19] = Antiproliferative activity against human NCI-H1975 cells assessed as reduction in cell viability measured after 72 hrs by MTT assay; assay type: functional, cell-based; conditions: NCI-H1975, 72 h
[20] = Aqueous solubility of the compound; assay type: physicochemical; conditions: buffer
[21] = Antiproliferative activity against human HOP92 cells assessed as cell growth at 10 uM measured after 48 hrs by sulforhodamine B assay relative to control; assay type: functional; conditions: HOP-92, 48 h, read-out: Activity

CCCc1n(Cc2ccc3ccccc3n2)cc[n+]1Cc1ccc2ccccc2c1.[Cl-]
GI50 [1]: 3.46 µM
TGI [1]: 15 µM
CC50 [1]: 39.6 µM
GI50 [2]: 1.88 µM
IC50 [2]: 3 µM
LC50 [2]: 37.3 µM
TGI [2]: 11.8 µM
GI50 [3]: 1630 nM
TGI [3]: 5.38 µM
CC50 [3]: 26.1 µM
growth at 10 µM [4]: 8.38%
GI50 [5]: 188 nM
TGI [5]: 1120 nM
CC50 [5]: 9.13 µM
GI50 [6]: 479 nM
TGI [6]: 10.6 µM
CC50 [6]: 52 µM
IC50 [7]: 6 µM
growth at 10 µM [8]: 25.7%
GI50 [9]: 2.16 µM
TGI [9]: 14.9 µM
CC50 [9]: 52.7 µM
GI50 [10]: 249 nM
LC50 (50% lethal concentration) [10]: 4.59 µM
TGI [10]: 1130 nM
growth at 10 µM [11]: 7.73%
growth at 10 µM [12]: -11.6%
growth at 10 µM [13]: -0.78%
GI50 [14]: 658 nM
IC50 [14]: 3 µM
TGI [14]: 10.6 µM
CC50 [14]: 46.5 µM
GI50 [15]: 1200 nM
TGI [15]: 7.6 µM
CC50 [15]: 39.7 µM
growth at 10 µM [16]: 39.1%
growth at 10 µM [17]: 41.6%
growth at 10 µM [18]: 12.3%
IC50 [19]: 2000 nM
solubility [20]: > 10 mM
growth at 10 µM [21]: -18.6%

CCCCc1n(Cc2ccc3ccccc3n2)cc[n+]1Cc1ccc2ccccc2n1.[Cl-]
GI50 [1]: 3.57 µM
TGI [1]: 16.3 µM
CC50 [1]: 42 µM
GI50 [2]: 4.76 µM
IC50 [2]: 7 µM
LC50 [2]: 47.6 µM
TGI [2]: 18.5 µM
GI50 [3]: 2800 nM
TGI [3]: 12 µM
CC50 [3]: 39.8 µM
growth at 10 µM [4]: 25.2%
GI50 [5]: 339 nM
TGI [5]: 3360 nM
CC50 [5]: 20.1 µM
GI50 [6]: 480 nM
TGI [6]: 7.27 µM
CC50 [6]: 43.6 µM
IC50 [7]: 7 µM
growth at 10 µM [8]: 41.4%
GI50 [9]: 4 µM
TGI [9]: 22 µM
CC50 [9]: 72.4 µM
GI50 [10]: 435 nM
LC50 (50% lethal concentration) [10]: 32 µM
TGI [10]: 4190 nM
growth at 10 µM [11]: 16.5%
growth at 10 µM [12]: 4.77%
growth at 10 µM [13]: 10%
GI50 [14]: 2170 nM
IC50 [14]: 5 µM
TGI [14]: 11.6 µM
CC50 [14]: 38.5 µM
GI50 [15]: 2370 nM
TGI [15]: 13.6 µM
CC50 [15]: 60.3 µM
growth at 10 µM [16]: 44.8%
growth at 10 µM [17]: 50.9%
growth at 10 µM [18]: 26.7%
IC50 [19]: < 1000 nM
solubility [20]: > 80 mM
growth at 10 µM [21]: 4.31%

CCCc1n(Cc2ccc3ccccc3n2)cc[n+]1Cc1ccc2ccccc2n1.[Cl-]
GI50 [1]: 4.68 µM
TGI [1]: 41.9 µM
CC50 [1]: > 100 µM
GI50 [2]: 6.78 µM
IC50 [2]: 10 µM
LC50 [2]: > 100 µM
TGI [2]: > 100 µM
GI50 [3]: 4280 nM
TGI [3]: 19.4 µM
CC50 [3]: 62.6 µM
growth at 10 µM [4]: 51.7%
GI50 [5]: 399 nM
TGI [5]: 3230 nM
CC50 [5]: 23.2 µM
GI50 [6]: 865 nM
TGI [6]: 15 µM
CC50 [6]: > 100 µM
IC50 [7]: 7 µM
growth at 10 µM [8]: 72.1%
GI50 [9]: 12.5 µM
TGI [9]: > 100 µM
CC50 [9]: > 100 µM
GI50 [10]: 601 nM
LC50 (50% lethal concentration) [10]: 27.1 µM
TGI [10]: 4300 nM
growth at 10 µM [11]: 34.2%
growth at 10 µM [12]: 13%
growth at 10 µM [13]: 22.8%
GI50 [14]: 2560 nM
IC50 [14]: 5 µM
TGI [14]: 11.7 µM
CC50 [14]: 39.8 µM
GI50 [15]: 3400 nM
TGI [15]: 34.8 µM
CC50 [15]: > 100 µM
growth at 10 µM [16]: 62.8%
growth at 10 µM [17]: 58.1%
growth at 10 µM [18]: 38%
IC50 [19]: 1000 nM
solubility [20]: > 80 mM
growth at 10 µM [21]: 16%

CCc1n(Cc2ccc3ccccc3n2)cc[n+]1Cc1ccc2ccccc2c1.[Br-]
GI50 [1]: 2.86 µM
TGI [1]: 13.8 µM
CC50 [1]: 38.1 µM
GI50 [2]: 0.997 µM
IC50 [2]: 3 µM
LC50 [2]: 46.1 µM
TGI [2]: 14.1 µM
GI50 [3]: 1400 nM
TGI [3]: 7.02 µM
CC50 [3]: 32.1 µM
growth at 10 µM [4]: 1.85%
GI50 [5]: 184 nM
TGI [5]: 671 nM
CC50 [5]: 7.04 µM
GI50 [6]: 311 nM
TGI [6]: 3.23 µM
CC50 [6]: 37 µM
IC50 [7]: 5 µM
growth at 10 µM [8]: 34.8%
GI50 [9]: 0.442 µM
TGI [9]: 7.34 µM
CC50 [9]: 38.7 µM
GI50 [10]: 275 nM
LC50 (50% lethal concentration) [10]: 13.3 µM
TGI [10]: 986 nM
growth at 10 µM [11]: 11.1%
growth at 10 µM [12]: -4.2%
growth at 10 µM [13]: -27.4%
GI50 [14]: 456 nM
IC50 [14]: 2 µM
TGI [14]: 10.8 µM
CC50 [14]: 49.5 µM
GI50 [15]: 1060 nM
TGI [15]: 4.87 µM
CC50 [15]: 39.4 µM
growth at 10 µM [16]: 37.3%
growth at 10 µM [17]: 15.9%
growth at 10 µM [18]: 19.6%
IC50 [19]: < 1000 nM
solubility [20]: 5 mM
growth at 10 µM [21]: -20.1%
